Here are results for one compound from patent US20230276803A1, “A PESTICIDALLY ACTIVE MIXTURE COMPRISING THIETANYLOXY COMPOUND, OXIDES OR SALTS THEREOF” (PI INDUSTRIES LTD., priority 2020, published 2023).

Holding throughout (format): in vivo
One experiment concerns Helicoverpa armigera. Briefly: Diet incorporation method against Helicoverpa armigera (Example A). Particulars: Helicoverpa armigera, 96 h, read-out: Observed Efficacy (%). An excerpt:
(§1) In which E represents the expected percentage of inhibition of the pests for the combination of two insecticides or one insecticide and one fungicide at defined doses (for example equal to x and y respectively), x is the percentage of inhibition observed for the pest/disease by the compound (1) at a given dose (equal to x), y is the percentage of inhibition observed for the pest/disease by the compound (2) or (3) at a defined dose (equal to y). When the percentage of inhibition observed for the combination is greater than E, there is a synergistic effect.
The diet incorporation method was used, in which semi-synthetic diet was incorporated into the test solutions consisting either of the single compounds or respective compound combinations, when the temperature was approximately 50° C. in the bio-assay containers, then stirred thoroughly for proper mixing and allowed to cool for 30 min. The solidified diet was cut into equal pieces, and then each piece was transferred into one cell of a bio-assay tray. A single starved third instar larva was released into each of these cells of the bio-assay trays and the tray was covered with a lid. The bio-assay trays were kept under laboratory conditions at a temperature of 25° C. and relative humidity of 70%. Observations on dead, moribund and live larvae were recorded 96 h after the release of the larvae. Percent mortality was calculated by combining dead and moribund larvae and comparing the result to the one of the untreated control. The results are shown for the compound of formula (I-1) in Table A.

For experiment [1], the system named is Plutella xylostella. Description: Leaf dip method (cabbage) against Plutella xylostella (Example C). Particulars: Plutella xylostella, foliar, 72 h, read-out: Observed Efficacy (%).
Excerpt: as §1
The leaf dip method was used, wherein the required quantity of the compound or respective compound combinations were weighed and dissolved in a test solution prepared in tubes. The tubes were put on a vortex at 2000 rpm for 90 min for proper mixing and then diluted with a 0.01% Triton-X solution to the desired test concentration. Cabbage leaves were dipped into the solution for 10 seconds, shade dried for 20 min and then transferred to single cells of bioassay trays. A single second instar larva was released into each cell and the tray was covered with a lid. The bio-assay trays were kept under laboratory conditions at a temperature of 25° C. and relative humidity of 70%. Observations on dead, moribund and live larvae were recorded 72 h after the release. Percent mortality was calculated by combining dead and moribund larvae and comparing the result with the one of the untreated control. The results are shown for compound of formula (I-1) in Table C.

Experiment [2] relates to Plutella xylostella. Briefly: Leaf dip method (cabbage leaves), Bacillus thuringiensis mixture against Plutella xylostella (Example F). Particulars: 0.1 ppm; 72 h.
Excerpt: as §1
The leaf dip method was used, wherein the required quantity of the compounds were weighed and dissolved in a test solution prepared in tubes. The tubes were put on a vortex at 2000 rpm for 90 min for proper mixing and then, for the single compounds, diluted with a 0.01% Triton-X solution, for the combinations, diluted with a 0.01% Triton-X solution containing formulated Bt, to get the desired test concentration. Cabbage leaves were dipped in the solution for 10 seconds, shade dried for 20 min and then transferred to single cells of bioassay trays. […] Observations on dead, moribund and live larvae were recorded 72 h after the release. Percent mortality was calculated by combining dead and moribund larvae and comparing the results to the one of the untreated control. […]

The test system of a further experiment is Erysiphe cichoracearum. Briefly: Preventive glasshouse test against Erysiphe cichoracearum in cucumber (Example K). Particulars: 500 ppm, preventive spray.
Excerpt: as §1
The single compounds or the respective compound combinations were dissolved in 2% dimethyl sulfoxide/acetone and then mixed with water containing emulsifier to a calibrated spray volume of 50 mL. The test solutions were poured into spray bottles for further applications. […]
A visual assessment of the performance of the compounds and the respective compound combinations was carried out by rating the disease severity (0-100% scale) on treated plants 3, 7, 10 and 15 days after application. Efficacy (% control) of the single compounds or compound combinations was calculated by comparing the disease rating in the treatment with the one of the untreated control. The compounds were also assessed for their plant compatibility by recording symptoms like necrosis, chlorosis and stunting. […]

As to `Cc1cc(Cl)cc(C(=O)NC(C)(C)C)c1NC(=O)c1cc(OC2CS(=O)(=O)C2)nn1-c1ncccc1Cl` [Compound (I-1), N-(2-(tert-butylcarbamoyl)-4-chloro-6-methylphenyl)-1-(3-chloropyridin-2-yl)-3-((1,1-dioxidothietan-3-yl)oxy)-1H-pyrazole-5-carboxamide], the pest or weed control at 0.1 ppm in the experiment with Helicoverpa armigera (0.1 ppm) and with Plutella xylostella [1] (0.1 ppm) was 12.5% throughout. Also, the pest or weed control at 0.41 ppm with Helicoverpa armigera (0.41 ppm) amounted to 50%. Also, in the experiment with Helicoverpa armigera (1 ppm), the pest or weed control at 1 ppm is 25%. Further, the pest or weed control at 0.0025 ppm with Plutella xylostella [1] (0.0025 ppm) is 0%. For the same compound, the pest or weed control at 0.004 ppm in the experiment on Plutella xylostella [1] (0.004 ppm) was 0%. The pest or weed control at 0.005 ppm in the experiment on Plutella xylostella [1] (0.005 ppm) came out at 0%. Further, the pest or weed control at 0.02 ppm in the experiment with Plutella xylostella [1] (0.02 ppm) was determined as 12.5%. Besides, the pest or weed control at 0.03 ppm with Plutella xylostella [1] (0.03 ppm) was 12.5%. Also, the pest or weed control at 0.05 ppm with Plutella xylostella [1] (0.05 ppm) came out at 12.5%. Besides, the pest or weed control at 0.5 ppm in the experiment on Plutella xylostella [1] (0.5 ppm) was 25%. Besides, the results for the “Observed Efficacy (%)” value in the experiment on Plutella xylostella [2] and with Erysiphe cichoracearum were 0% and 28%, respectively.
